Assay results taken from patent publication US20190125753A1, “COMPOUNDS AND METHODS FOR INCREASING HEMATOPOIESIS” (University of Southern California, priority 2016, published 2019).

Tests used:
[1] = biological target: T1, interaction between β-catenin and p300 (Mus musculus, UniProt B2RWS6); assay: Co-immunoprecipitation (pull-down) in C2Cl2 myoblast cells; format: cell-based; settings: C2Cl2 cells treated 24 hours
T1 construct: endogenous in cells; host or cells: mouse myoblast C2C12 cells
Method: YH249 and YH250 were selected from the compounds described herein for further testing. Co-immunoprecipitation (CO-IP) was performed with mouse myoblast C2Cl2 cells. Cells were treated with DMSO (control), or YH249, or YH250 for 24 hours. Cell lyses were pulled down with anti-p300 or anti-CBP antibodies, run on gel and probed with anti-β-catenin antibody. […] A biotinylated version of YH249 (Bio-249) was prepared via the propargyl amide variant. Using a biotin with a linker and a terminal azide residue, we were able to couple the biotin to the YH249 core via a 3+2 cyclization reaction to provide Bio-249. Bio-249 was incubated with lysates from C2Cl2 myoblasts, either in the presence or absence of competitor YH249 for 4 h at 4° C. and then bound to streptavidin agarose beads. After extensive washing the bound proteins were eluted and run out on an […].

bone marrow HSPC = assay: Competitive repopulation assay with bone marrow of 7Gy irradiated mice; format: in vivo, mouse
Method: In the hematopoietic system, the LTR-HSC or pluripotent HSC sits atop the hematopoietic hierarchy. LTR-HSCs subsequently generate “Short Term Repopulating” hematopoietic stem cells (STR-HSC), and then progenitor cells. After radiation induced myeloid-ablation, there is a significant loss of progenitor cells. To investigate the target cell population in irradiated mice, YH250 or DMSO were administrated to 7Gy irradiated animals 24 hours post radiation. Then, 7 or 14 days post radiation (6 or 13 days after YH250 or DMSO administration), bone marrow cells were recovered from animals and competitive repopulation assay was performed to study YH250 function in stimulating HSPC proliferation. 1×10^6 testing bone marrow cells were mixed with 2×10^5 competitor cells (from non-irradiated mice) and injected into lethally irradiated mice (9Gy) (FIG. 18A). HSPC cell number will be reflected in the short-term (1-2 months after BMT) or long-term (≥4 month of BMT) engraftment. […] The same observation also applies to cells isolated 14th day post 7Gy radiation.
The expanded LTR-HSC at day 6 post YH250 stimulation then starts to develop and give more STR-HSC by day 14 post radiation. There is no further LTR-HSC expanding from day 6 to day 13 post YH250. Thus, one dose of YH250 administrated 24 hours post 7Gy radiation stimulated symmetric non-differentiation LTR-HSC expansion and followed with STR-HSC expansion.

bone marrow cells = assay: Bone marrow CFC recovery after 7Gy radiation; format: in vivo, mouse
Method: According to particular aspects of the present invention, if YH250 can stimulate 7Gy irradiated animal HSPC proliferation/expansion, the compound may accelerate the recovery of the hematopoiesis from radiation damage. We first tested if YH250 treatment accelerates bone marrow cell CFC activities, the more differentiated cells. After 7Gy radiation and either DMSO or YH250 administration 24 hours post radiation, bone marrow cells were recovered at different time points (day 6, 11, 13, 15 post treatment) and CFC assays were performed (FIG. 19A). […] Consistent with increased colony numbers, there are more cells from plates of YH250 treated cells.

7Gy irradiated animals = assay: Peripheral blood count and body weight recovery after 7Gy radiation; format: in vivo
Method: YH250 was then tested for stimulating blood count recovery in irradiated animals. In this experiment, animals received 7Gy whole body radiation and then, either YH250 or DMSO was administrated 24 hours post radiation. Animal body weight and peripheral blood counts were measured to monitor hematopoietic recovery (FIGS. 20A-20B). […] It is worth noting that it is a full lineage blood cell count recovery, including white blood cell (lymphocyte, monocyte and neutrophil), red blood cell and platelet (FIG. 20C). The neutrophil and platelet recovery is most significant.

bone marrow HSC = assay: Competitive repopulation assay after multi-dose 5-FU; format: in vivo, mouse; settings: multi-dose YH250 with 5-FU
Text: At the last round of 5-FU treatment from FIG. 25A, bone marrow cells from survived animals were isolated (CD45.2) and mixed with competitor cells (CD45.1/CD45.2 hybrid) and injected to CD45.1 mice for competitive repopulation assay. This is to assess whether YH250, by multiple uses in this experiment setting, will result in changes of HSC activity and lead to HSC exhaustion (FIG. 26A).

[2] = tested on: H9 human embryonic stem cells; assay: Maintenance of human ES cell pluripotency, 5 days; format: cell-based; settings: 25 ng/ml Wnt3a; 500 nM YH249 or 200 nM YH250, 5 days, without FGF and TGF
Method: We also determined that IQ-1 indirectly, via binding to the PR72/130 subunit of PP2A, inhibited the p300/β-catenin interaction (Id). Therefore, we anticipated that YH249/250 should also maintain mESC pluripotency in a Wnt dependent manner. To test his, R1 mESCs were cultured under feeder free conditions in the presence or absence of YH249/250 for 5 days. […] Pluripotency markers, Oct4, Nanog, Sox2, SSEA-1 and ALP, were all expressed in the cells treated with Wnt3a and YH250 (FIG. 28b). Moreover, Wnt3a could be replaced with the selective GSK-3 inhibitor CHIR99021, which activates the Wnt signaling pathway (FIG. 28a, lower panel). […] In the event, similarly to ID-8, the combination of Wnt3a and YH249/250 provided morphologically undifferentiated colonies of H9 human embryonic stem cells (hESCs) without FGF and TGF (FIG. 28c). hPSC markers were detected by ALP staining and immunofluorescence (FIG. 28d). In addition to H9 cells, two other hESC lines and a human induced pluripotent stem (iPS) cell line could be also maintained undifferentiated morphology utilizing the same conditions (not shown).
Specifically, FIG. 28A-28D, show maintenance of ESC's pluripotency by YH249 and YH250. […] 28A, Typical colony morphologies of RI mouse ES cells cultured 5 days in [upper panel] […]

[3] = bone marrow cells recovered day 7 post radiation
[4] = bone marrow cells recovered day 14 post radiation
[5] = administered 24 hours post radiation

T1 sequence (B2RWS6 2-2412 limits assumed): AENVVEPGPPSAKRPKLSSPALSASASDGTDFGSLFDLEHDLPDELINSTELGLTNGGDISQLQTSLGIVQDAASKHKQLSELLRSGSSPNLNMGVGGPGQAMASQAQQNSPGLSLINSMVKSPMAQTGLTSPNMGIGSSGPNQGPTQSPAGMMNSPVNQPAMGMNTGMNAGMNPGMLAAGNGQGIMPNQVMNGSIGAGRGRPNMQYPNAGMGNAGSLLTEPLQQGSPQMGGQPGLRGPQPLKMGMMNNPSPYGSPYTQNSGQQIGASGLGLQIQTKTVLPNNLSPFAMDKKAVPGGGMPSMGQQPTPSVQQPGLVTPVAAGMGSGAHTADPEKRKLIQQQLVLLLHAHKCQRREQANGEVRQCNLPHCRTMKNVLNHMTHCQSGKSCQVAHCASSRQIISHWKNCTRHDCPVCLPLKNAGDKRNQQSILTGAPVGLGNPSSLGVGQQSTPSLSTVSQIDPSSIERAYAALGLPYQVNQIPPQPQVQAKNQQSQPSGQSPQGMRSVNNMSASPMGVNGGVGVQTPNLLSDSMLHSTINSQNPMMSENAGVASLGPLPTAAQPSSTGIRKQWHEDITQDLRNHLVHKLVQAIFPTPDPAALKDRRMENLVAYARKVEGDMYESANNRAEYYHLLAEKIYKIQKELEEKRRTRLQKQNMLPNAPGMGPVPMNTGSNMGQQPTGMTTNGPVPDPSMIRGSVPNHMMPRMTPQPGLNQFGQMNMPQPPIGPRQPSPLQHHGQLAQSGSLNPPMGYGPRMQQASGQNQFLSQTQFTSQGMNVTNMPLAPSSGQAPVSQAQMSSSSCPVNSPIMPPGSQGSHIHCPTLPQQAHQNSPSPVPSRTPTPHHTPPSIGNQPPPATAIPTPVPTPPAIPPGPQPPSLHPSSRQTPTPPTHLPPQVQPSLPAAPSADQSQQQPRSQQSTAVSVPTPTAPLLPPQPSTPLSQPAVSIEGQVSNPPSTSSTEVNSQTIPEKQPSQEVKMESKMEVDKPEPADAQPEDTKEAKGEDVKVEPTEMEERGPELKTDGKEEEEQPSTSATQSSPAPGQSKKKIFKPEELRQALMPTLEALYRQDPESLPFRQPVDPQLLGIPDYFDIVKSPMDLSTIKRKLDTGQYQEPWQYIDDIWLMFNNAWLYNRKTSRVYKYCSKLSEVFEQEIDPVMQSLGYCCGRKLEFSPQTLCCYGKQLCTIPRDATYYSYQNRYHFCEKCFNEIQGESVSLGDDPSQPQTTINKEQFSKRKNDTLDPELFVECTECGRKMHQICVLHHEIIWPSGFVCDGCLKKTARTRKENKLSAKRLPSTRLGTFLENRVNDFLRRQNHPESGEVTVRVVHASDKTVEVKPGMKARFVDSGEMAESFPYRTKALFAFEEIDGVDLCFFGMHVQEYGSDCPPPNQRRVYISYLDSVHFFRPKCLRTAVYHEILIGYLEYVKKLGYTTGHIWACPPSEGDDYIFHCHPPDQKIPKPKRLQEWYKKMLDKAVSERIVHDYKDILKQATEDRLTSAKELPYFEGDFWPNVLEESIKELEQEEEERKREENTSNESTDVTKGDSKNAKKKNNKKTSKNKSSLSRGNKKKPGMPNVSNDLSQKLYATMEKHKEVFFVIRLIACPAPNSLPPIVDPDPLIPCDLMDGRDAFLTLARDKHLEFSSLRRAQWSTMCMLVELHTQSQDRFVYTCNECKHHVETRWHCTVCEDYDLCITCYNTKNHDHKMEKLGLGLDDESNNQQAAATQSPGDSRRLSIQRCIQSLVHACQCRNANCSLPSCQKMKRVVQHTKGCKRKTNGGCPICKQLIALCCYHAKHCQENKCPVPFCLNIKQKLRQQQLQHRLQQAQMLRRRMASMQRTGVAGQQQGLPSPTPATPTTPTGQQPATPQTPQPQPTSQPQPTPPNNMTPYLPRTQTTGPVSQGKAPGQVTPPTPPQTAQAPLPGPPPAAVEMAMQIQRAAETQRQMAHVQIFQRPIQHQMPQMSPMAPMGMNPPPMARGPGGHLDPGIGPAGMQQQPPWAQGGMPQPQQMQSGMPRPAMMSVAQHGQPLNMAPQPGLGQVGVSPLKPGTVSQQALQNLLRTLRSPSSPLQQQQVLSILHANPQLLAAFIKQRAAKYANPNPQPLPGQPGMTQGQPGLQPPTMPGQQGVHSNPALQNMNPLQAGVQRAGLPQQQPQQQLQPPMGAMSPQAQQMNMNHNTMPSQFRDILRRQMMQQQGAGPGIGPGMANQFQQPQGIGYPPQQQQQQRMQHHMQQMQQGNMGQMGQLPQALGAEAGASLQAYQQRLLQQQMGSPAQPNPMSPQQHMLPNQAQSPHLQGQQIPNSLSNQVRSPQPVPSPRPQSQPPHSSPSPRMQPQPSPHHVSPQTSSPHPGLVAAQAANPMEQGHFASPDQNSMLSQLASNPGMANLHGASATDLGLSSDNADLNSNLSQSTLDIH

Compound: COc1cccc(CNC(=O)N2C3CN(Cc4cc(Cl)cc(Cl)c4N(C)C)C(=O)[C@H](Cc4ccc(O)cc4)N3C(=O)CN2C)c1OC (stereo partly shown) [YH250]
- β-catenin in the p300 pull down lane [1]: significantly decreased levels of β-catenin
- long-term engraftment (bone marrow HSPC; [3]): 4.1±1.6
- short term engraftment (bone marrow HSPC; [3]): 5.8±2.4
- long-term engraftment (bone marrow HSPC; [4]): 3.4±0.57
- short term engraftment (bone marrow HSPC; [4]): 12.3±2.0
- engraftment vs DMSO treated animals, short term and long term (bone marrow HSPC; cells recovered 7th day post 7Gy radiation, one dose 24 hours post radiation): better engraftment
- cells from CFC plates (bone marrow cells; 7Gy radiation): more cells
- colonies in CFC assay vs DMSO treated mice (bone marrow cells; 14th day post 7Gy radiation): significantly more colonies
- blood cell count at nadir points vs DMSO (7Gy irradiated animals): significantly higher
- blood count recovery (full lineage) (7Gy irradiated animals; [5]): Accelerated blood count recovery
- body weight (7Gy irradiated animals; [5]): very little weight drop
- lineage bias in short-term and long-term repopulation (bone marrow HSC): no lineage bias
- hESC pluripotency [2]: maintain pluripotency
